Test results reported in patent publication US20210000894A1, “Anti-Stress Composition” (MORINAGA MILK INDUSTRY CO., LTD., priority 2018, published 2021).

Tested on: social defeat stress-bearing C57BL/6J mice
Assay: Social defeat stress: escape time (time taken to be bitten 20 times by the male ICR mouse)
Format: in vivo
Conditions: for escape time, average value: C57BL/6J mice, L. helveticus as living cells orally once a day
Method: In the present experiment, an experiment of causing a small mouse to experience social defeat by allowing the small mouse to be bitten many times by a large mouse was carried out, and an effect of Lactobacillus helveticus on behavioral changes caused by social defeat stress (decrease in escape behavior, a lethargic state) was investigated. In the present experiment, C57BL/6J mice were used as social defeat stress-bearing mice. In a cage of male and female ICR mice cohabiting for three weeks or longer, only the male parent was left. A C57BL/6J mouse was brought into that cage, and the time taken by the C57BL/6J mouse to be bitten 20 times by the male parent mouse (escape time) was measured. As the escape time increases, it is implied that the C57BL/6J mouse attempts to escape from the ICR mouse, and therefore, it was determined that the social defeat stress is reduced. From two days before the beginning of giving social defeat stress until the end of the behavioral test, the experiment was carried out respectively for mice to which milnacipran was administered (Toledomin tablets; manufactured by Janssen Pharmaceutical K.K.) (positive control), mice to which nothing was administered (vehicle control), and mice to which living bacterial cells of Lactobacillus helveticus NITE BP-01671 were orally administered once a day using a sonde needle.

CCN(CC)C(=O)C1(c2ccccc2)CC1CN (stereo not shown) [milnacipran]
escape time compared to the vehicle control (in words) (C57BL/6J mice under social defeat stress, summary of Table 1): increased significantly compared to the vehicle control
escape time, average value (Day 1, administered from two days before stress): 24.6 s
escape time, average value (Day 2): 42.9 s
escape time, average value (Day 3): 65.9 s
escape time, average value (Day 4): 63.2 s
escape time, average value (Day 5): 81.0 s
escape time, average value (Day 8): 114.8 s
escape time, average value (Day 9): 159.0 s
escape time, average value (Day 10): 183.2 s
escape time, average value (Day 11): 183.9 s
escape time, average value (Day 12): 143.2 s
escape time, average value (Day 15): 68.7 s
escape time, average value (Day 16): 46.9 s
